Read-outs that look alike come from different tables or passages of the source. Where a SMILES comes first, the peptide text is derived from it.
Assays:
[1] = test system: Swiss albino mice; assay: GI motility (charcoal transit distance); assay type: in vivo; settings: 5 mg/kg and 50 mg/kg intraperitoneal, 30 min post-drug
Procedure: Swiss albino mice (30-35 g) were injected with saline, the peptide (5 mg/kg, 50 mg/kg intraperitoneal) or morphine (0.5 mg/kg, 5 mg/kg, 50 mg/kg intraperitoneal). The experimenters are blind to the identity of the solutions. All mice were administered 5 mg charcoal (0.1 ml of 50 mg/ml charcoal solution) via oral gavage immediately after drug administration. At 30 min post- drug / charcoal administration, the mice were sacrificed by cervical dislocation and the GI tract was exposed and the location of the charcoal identified. The distance the charcoal traveled in the intestine from the stomach was measured and expressed as % of total length of the GI tract.

[2] = test system: Swiss albino mice; assay: Rotarod test; assay type: in vivo; settings: 1 or 10 mg/kg, sublingual; 1h, 2h and 3h post dose
Procedure: Swiss albino mice (∼20-30 g) were first trained on the rotarod, which accelerated from 0-20 rpm over 5 min, prior to the experiment. Only mice that were capable of staying on the rotarod for the entire 5 min period were used in this experiment. Mice were either administered with the peptide (1 or 10 mg/kg, sublingual), or morphine (20 mg/kg, subcutaneous). After drug administration, the animals are placed on the rotarod and the time taken for the mice to slip was recorded (up to 5 min), and subsequently at 1h, 2h and 3h post peptide, and at 30 min, 1h30 min and 2h30 min post morphine. Statistical comparison was done by either Student's t-test or one-way ANOVA.

[3] = test system: Swiss albino mice; assay: Spontaneous locomotor activity; assay type: in vivo; settings: 5 or 50 mg/kg, within 4 h of drug administration, compared to control
Procedure: Swiss albino mice (∼30 - 40 g) were first placed into their respective chambers with a 20 min pre-treatment recording. Only mice showing at least 50 counts / 5 min are used in the experiments. Mice were administered saline (control), peptide (5 or 50 mg/kg) or morphine (50 mg/kg). Experimenters were blind to the identity of the drug solutions. After drug administration, the animals were placed into their individual chambers and their spontaneous locomotor activity was recorded by video tracking and the data were recorded for a period of 4 h. Statistical comparison was done by 2-way ANOVA.

[4] = test system: rats; assay: Open-field test (anxiety score); assay type: in vivo; settings: intraperitoneally, 1 or 50 mg/kg, compared to saline control
Excerpt: The open field test is generally used to assess anxiety level of rodents due to their natural aversion of open space and thus their preference to stay near the side rather than venturing to the more open central part of the open field.
The open field was divided into 16 equal size squares (25 x 25 cm). The 4 squares at the centre are assigned a low anxiety score (0) while those at the 4 corners are assigned a high anxiety score (2). The remaining 8 squares are assigned a medium score (1). A rat entering each square will be given the score assigned to that square. The sum total obtained within the 5-min test period divided by the number of squares entered is the anxiety score for that rat. Diazepam was used as positive control. Statistical comparison was done by Student's t-test.

[5] = test system: rats; assay: Elevated-plus maze test; assay type: in vivo; settings: 1 or 50 mg/kg, 30 min or 3 h post-dose, compared to saline
Excerpt: The Elevated-Plus Maze Test is generally used to assess anxiety level of rodents due to their natural aversion for height. Two opposite arms of the elevated-plus maze are enclosed by high walls (closed arms) while the other two are not (open arms). The test animals (rats) naturally prefer and spend more time in the closed arms.

[6] = Pharmacokinetics: plasma concentration and bioavailability by route (LC/MS/MS); assay type: in vivo, mice; settings: for bioavailability: AUC compared to intravenous route
Procedure: The peptide (1, 5, 15 and 25 mg/kg, 0.5 ml/kg) was administered sublingually to mice. Upon reaching specified time points of 1, 5, 15, 30, 60 and 120 min post-dose, each mouse was sacrificed and blood samples were collected via cardiac puncture. Plasma samples were then extracted and analyzed under LC/MS/MS. Systemic exposure of the peptide was also studied through intravenous, oral (gavage) and intraperitoneal routes.

[7] = test system: Swiss albino mice; assay: Toxicity, single dose regimen, 14 days observation; assay type: in vivo; settings: for Appearance / Body Weight Day 1 / Body Weight Day 14 / Death: intraperitoneal, single dose
Procedure: Swiss albino mice were administered with the peptide at 8 mg/kg or 80 mg/kg (intraperitoneal) on day 1 and then observed for 14 days. Control mice received saline.
At the end of the period, all mice were sacrificed, dissected and observed for any obvious abnormality. Weights of the major organs, including brain, heart, lung, liver, spleen and kidney, were recorded.

[8] = test system: Swiss albino mice; assay: Toxicity, multiple dose regimen, once daily for 14 days; assay type: in vivo; settings: for Appearance / Body Weight Day 1 / Body Weight Day 14 / Death: Intraperitoneal, daily
Procedure: Swiss albino mice were administered with the peptide at 8 mg/kg or 80 mg/kg (intraperitoneal) once daily for 14 days. Control mice received saline. At the end of the period, all mice were killed, dissected and observed for any obvious abnormality. Weights of the major organs, including brain, heart, lung, liver, spleen and kidney, were recorded.

[9] = test system: mice; assay: Acute high dose toxicity (oral and intravenous); assay type: in vivo
Procedure: Acute toxicity was determined by both oral and intravenous administration of the peptide. Three mice were given a dose of peptide at 2 g/kg orally by gavage, 5 ml/kg.

[10] = test system: Sprague-Dawley rats; assay: Acute effect on blood pressure, heart rate and respiration rate in anesthetized rats; assay type: in vivo; settings: 5 and 20 mg/kg
Procedure: Sprague-Dawley rats (∼300 g) were anesthetized and the carotid artery was cannulated for blood pressure measurement. Drugs were administered by the pre-determined route. A pulse transducer was secured across the thoracic region of the rat to allow measurement of respiration rate. Blood pressure was recorded for at least 15 min or until a relatively stable blood pressure was observed.

[11] = 125 mg/kg, intravenous, only the 5 mice that survived

For `C[C@@H](O)[C@H](NC(=O)[C@@H]1CCCN1C(=O)[C@H](Cc1ccccc1)NC(=O)[C@@H]1CCCN1C(=O)[C@@H](N)CC(N)=O)C(=O)N[C@@H](Cc1c[nH]c2ccccc12)C(=O)N[C@@H](CCCNC(=N)N)C(=O)N[C@@H](CCCCN)C(=O)N[C@@H](CCCNC(=N)N)C(=O)N1CCC[C@H]1C(=O)NCC(=O)O` [the peptide, NPFPTWRKRPG] (H-NPFPTWRKRPG-OH), the GI transit distance [1] was “did not show any significant reduction”, the GI transit distance ([1]; listed as The peptide) was “does not show any significant effect” and the “rotarod performance (time to slip)” value [2] was “No statistical significant effects”. For the same compound, the locomotive activities [3] was “no significant difference”, the anxiety scores [4] was “did not show any effect on the anxiety scores” and the “time spent in the open or closed arms” value [5] was “did not produce any significant changes”. The plasma concentration ([6]; 1 hour after administration, other routes of administration) was “approximately undetectable”, the bioavailability ([6]; intraperitoneal route) was 0.5% and the level at 1 h ([6]; mouse, plasma, 25 mg/kg, 1 hour after administration, sublingual route) was > 100 ng/mL. For the same compound, the bioavailability ([6]; mouse, plasma, ip, intraperitoneal route, read-out: bioavailability) was 0.5%, the bioavailability ([6]; mouse, plasma, oral route, read-out: bioavailability) was 4% and the bioavailability ([6]; oral route) was 4%. For the same compound, the bioavailability ([6]; sublingual route) was 44%, the plasma concentration ([6]; sublingual, doses below 5 mg/kg, by 30 min after administration) was “negligible” and the Appearance ([7]; 8 mg/kg) was “normal”. For the same compound, the “Body Weight Day 1” value ([7]; 8 mg/kg) was 26.2 ± 0.4 g, the “Body Weight Day 14” value ([7]; 8 mg/kg) was 31.7 ± 0.5 g and the Death ([7]; 8 mg/kg) was “nil”. The Appearance ([7]; 80 mg/kg) was “normal”, the “Body Weight Day 1” value ([7]; 80 mg/kg) was 25.8 ± 0.6 g and the “Body Weight Day 14” value ([7]; 80 mg/kg) was 31.1 ± 0.7 g. The Death ([7]; 80 mg/kg) was “Nil”, the “organ appearance and weights” value ([7]; single dose 8 or 80 mg/kg intraperitoneal, day 14) was “All organs appeared normal and no differences in weight were observed” and the obvious toxicity ([7]; single high dose up to 80 mg/kg) was “did not cause any obvious toxicity”. For the same compound, the Appearance ([8]; 8 mg/kg) was “normal”, the “Body Weight Day 1” value ([8]; 8 mg/kg) was 21.4 ± 0.8 g and the “Body Weight Day 14” value ([8]; 8 mg/kg) was 30.0 ± 0.4 g. The Death ([8]; 8 mg/kg) was “nil”, the Death ([8]; 8 mg/kg, listed as peptide) was “death of one mouse” and the Appearance ([8]; 80 mg/kg) was “normal”. The “Body Weight Day 1” value ([8]; 80 mg/kg) was 21.3 ± 0.5 g, the “Body Weight Day 14” value ([8]; 80 mg/kg) was 28.1 ± 1.2 g and the Death ([8]; 80 mg/kg) was “Nil”. The “organ appearance and weights” value ([8]; 8 or 80 mg/kg intraperitoneal once daily for 14 days) was “All organs appeared normal and no differences in weight were observed”, the obvious toxicity ([8]; multiple high doses up to 80 mg/kg for 14 days) was “did not cause any obvious toxicity” and the “Body Weight (g, 2 weeks postdose)” value ([9]; 62.5 mg/kg, intravenous) was 34.7 ± 1.5 g. For the same compound, the “Body Weight (g, predose)” value ([9]; 62.5 mg/kg, intravenous) was 30.0 ± 1.0 g, the behaviour after administration ([9]; 62.5 mg/kg, intravenous) was “appeared sedated after peptide but recovered after several hours” and the mice that died ([9]; 125 mg/kg intravenous) was “four out of nine”. The time to death ([9]; 125 mg/kg intravenous) was 5 to 10 min, the “behaviour of surviving mice” value ([9]; 125 mg/kg intravenous, five surviving mice) was “appeared heavily sedated for several hours” and the “Body Weight (g, 2 weeks postdose)” value [9, 11] was 33.6 ± 1.5 g. For the same compound, the “Body Weight (g, predose)” value [9, 11] was 28.6 ± 1.3 g, the behaviour after administration ([9]; 2 g/kg oral by gavage) was “appeared sedated with much decreased activity” and the “time to recovery from sedation” value ([9]; 2 g/kg oral, listed as peptide) was “about 1 h”. For the same compound, the “Body Weight (g, 2 weeks postdose)” value ([9]; 2g/kg, oral) was 33.0 ± 1.7 g, the “Body Weight (g, predose)” value ([9]; 2g/kg, oral) was 29.3 ± 1.5 g and the “time to recovery from sedation” value ([9]; 2g/kg, oral) was ≤ 1 h. For the same compound, the LD50 ([9]; administered intravenously, mice) was “about 125 mg/kg”, the blood pressure ([10]; intravenous route) was “dose dependent drop” and the blood pressure ([10]; intravenous route, listed as Peptide) was “decreased in blood pressure”. For the same compound, the blood pressure ([10]; sublingual or intraperitoneal routes) was “no change in blood pressure” and the blood pressure ([10]; sublingual or intraperitoneal routes, listed as peptide) was “did not cause any changes in blood pressure”.

— patent EP2476410A1, “An analgesic peptide-containing composition for transbuccal administration” (priority 2011, dated 2012)
